Assay results from paper PMC8911181, “A Novel CDK4/6 and PARP Dual Inhibitor ZC-22 Effectively Suppresses Tumor Growth and Improves the Response to Cisplatin Treatment in Breast and Ovarian Cancer” (International Journal of Molecular Sciences, 2022).

Key:
[1] = tested on: MDA-MB-231 and OVCAR5 cells; test: PI-based cell-cycle analysis by flow cytometry; design: species or system human; details: MDA-MB-231 (2 μM) and OVCAR5 (0.5 μM) cells; 24 h
Protocol: MDA-MB-231 cells were treated with 2 μM LY2835219 or ZC-22, and OVCAR5 cells were treated with 0.5 μM LY2835219 or ZC-22 for 24 h. After washing in PBS, cells were fixed with 70% ethanol on ice for 2 h, followed by centrifugation at 300× g—for 20 min at 4 °C, and then subjected to a propidium iodide (PI, BD Biosciences, Franklin Lakes, NJ, USA) based cell-cycle analysis according to the manufacturer’s protocols. Cell-cycle distribution was analyzed by flow cytometry. Each experiment was performed in triplicates.
(§1) Figure 3 ZC-22 inhibits CDK4/6 and PARP to induce cell-cycle arrest, DNA damage, and apoptosis in breast and ovarian cancer cells. […] The levels of CDK4/6 and p-Rb/Rb were determined by Western blot (A). Cell-cycle distribution was analyzed by flow cytometry (B). […] (D,E) Representative pictures (left) and quantification of percentage (right) of γH2A.X-positive cells in MDA-MB-231 cells treated with 2 μM OLA or ZC-22 for 24 h (D), or OVCAR5 cells treated with 0.5 μM OLA or ZC-22 for 24 h (E). Values are means ± SD, n = 3. * p < 0.05, ** p < 0.01, and *** p < 0.001 for comparisons with the DMSO-treated group. p value was calculated using an unpaired t-test. (F,G) Representative pictures (F) and quantification of percentage (G) of apoptotic cells in MDA-MB-231 cells treated with 2 μM LY-2, OLA, or ZC-22 for 48 h or in OVCAR5 cells treated with 0.5 μM LY-2, OLA or ZC-22 for 48 h. […]

[2] = tested on: PARP; test: Western blot of PAR, a direct product of PARP; type: cell-based, human; details: MDA-MB-231 (2 μM) and OVCAR5 (0.5 μM) cells, 48 h
Protocol: Cells were washed with PBS, collected with scraper, and then lysed in RIPA buffer containing 1× protease and phosphatase inhibitors for 30 min on ice. The supernatants were collected by centrifugation at full speed for 10 min at 4 °C and subjected to SDS-PAGE followed by immunoblotting as described before. Signals were detected using enhanced chemiluminescence (Millipore, Burlington, MA, USA) and captured by the G: BOX Chemi XRQ gel doc System (Syngene, Cambridge, UK).
as §1, with “cells. (A,B) MDA-MB-231 cells were treated with 2 μM LY2835219 (LY-2) or ZC-22.” for “cells.”, “[…] Values are means ± SD, n = 3. * p < 0.05, ** p < 0.01,” for “(F,G) Representative pictures (F)”, “*** p < 0.001 vs. the DMSO-treated group. p value was calculated using an unpaired t-test.” for “quantification of percentage (G) of apoptotic cells in MDA-MB-231 cells treated with 2 μM LY-2, OLA, or ZC-22 for 48 h or in OVCAR5 cells treated with 0.5 μM LY-2, OLA or ZC-22 for 48 h.”

## Cc1nc2c(F)cc(-c3nc(Nc4ccc(N5CCN(C(=O)c6cc(Cc7n[nH]c(=O)c8ccccc78)ccc6F)CC5)cn4)ncc3F)cc2n1C(C)C [ZC-22, 4-(4-fluoro-3-(4-(6-((5-fluoro-4-(4-fluoro-1-isopropyl-2-methyl-1H-benzo[d]imidazole-6-yl)pyrimidin-2-yl)amino)pyridin-3-yl)piperazine-1-carbonyl)benzyl)phthalazin-1(2H)-one]
[1]
  cell-cycle distribution: dramatically arrested cell cycle at the G1/S check-point
[2]
  PAR expression: effectively inhibited PAR expression
